The text below walks through data of patent US20220226334A1, “ANTIBODY CONJUGATE AND APPLICATION OF PHARMACEUTICAL COMPOSITION THEREOF” (SHANGHAI FUDAN-ZHANGJIANG BIO-PHARMACEUTICAL CO., LTD., priority 2019, published 2022).

Where two headings read alike, the source gives them in different places. Where a SMILES comes first, the peptide text is derived from it. [ ]: non-standard residue; d: D form. The star is where a group is joined. Dolaproine = CO[C@@H]([C@@H]1CCCN1)[C@@H](C)C(=O)O; Dil = CC[C@H](C)[C@H](NC)[C@@H](CC(=O)O)OC; X1 = C[C@@H](N*)[C@@H](O)c1ccccc1; NMeV = CN[C@H](C(=O)O)C(C)C

Experiment [1] relates to Hodgkin lymphoma cells L428. Briefly: In vitro killing of L428 cells (AlamarBlue), single drugs, MDR1 inhibitor, combinations.
Procedure: Cell proliferation method was used to investigate the killing effect of drugs on cells. L428 cells were inoculated in 96-well cell culture plates at 5×10^4 cell/mL, i.e., 5000 cells per well. Doxorubicin was diluted to 259.5 ng/mL, 129.8 ng/mL, 64.88 ng/mL, 32.44 ng/mL, 21.63 ng/mL, 14.42 ng/mL, 9.611 ng/mL, 3.844 ng/mL, 1.538 ng/mL using cell culture medium, for a total of 9 concentrations. Serial dilutions of Doxorubicin were added to the culture plates of the seeded plates and incubated for 77±2 hours at 37° C. in a 5% CO2 incubator. The samples were stained with AlamarBlue fluorescent dye and incubated at 37° C. in a 5% CO2 incubator for 19±2 hours. Readings were performed at wavelength of 50 nm (excitation)/590 nm (emission). The IC50 value of Doxorubicin was calculated by fitting it with four-parameter equation.
Calcusyn, the software for calculating the combination index, was chosen to calculate the CI of the combination index at different killing levels,
The test system of experiment [2] is Hodgkin lymphoma cells L540. Nature of the experiment: In vitro killing of L540 cells, single drugs and combinations. In kind it is cell-based.
Procedure: (§1) After the sample was added, it was cultured in 5% CO2 at 37° C. for 77±2 hours, stained with AlamarBlue fluorescent dye, cultured for 19±2 hours, and read at 530 nm (excitation)/590 nm (emission). The IC50 value of the semi-inhibitory concentration of each sample was calculated by fitting with the computer's four-parameter equation software.
(§2) Cell proliferation method was used to investigate the killing effect of drugs on cells.
The test system of the next experiment is Karpas299 cells. Nature of the experiment: In vitro killing of Karpas299 cells (AlamarBlue), single drugs and combinations. It is filed as cell-based, human.
Experiment [3] has as its system Hodgkin lymphoma cells L428. Particulars: known in the art; cited from earlier work.
Experiment [4] has as its target MDR1 (multidrug resistance gene 1 product, CD243, ABC B1) on the cell surface (UniProt P08183). Nature of the experiment: flow cytometry, PE-labelled UIC2 on L540 cells (cells other than L428 did not express MDR1); PBS as negative control.
For experiment [5] the target is unchanged. Nature of the experiment: flow cytometry, PE-labelled UIC2 on HH cells (cells other than L428 did not express MDR1); PBS as negative control.
Experiment [6] has the same target. Nature of the experiment: flow cytometry, PE-labelled UIC2 on Karpas 299 cells (cells other than L428 did not express MDR1); PBS as negative control.
The target is the same in experiment [7]. Briefly: flow cytometry, PE-labelled UIC2 on L428 cells (text: L428 specifically expressed MDR1 on the surface); PBS as negative control.
Where [8] appears, read: Homo sapiens, L-428, read-out: IC50 of single drug.
Where [9] appears, read: Homo sapiens, L-540, L540, Tables 8 and 13, read-out: IC50 of single drug.
[10] abbreviates: Homo sapiens, KARPAS-299, Karpas299 cells, Table 13, read-out: IC50 of single drug.

Procedure for Karpas299 cells: as §1, §2

With `O=P1(N(CCCl)CCCl)NCCCO1` (stereo not shown) [Cyclophosphamide], the IC50 was 590 µM in experiment [1] (setting [8]); 121 µM in experiment [2] (Homo sapiens, L-540, read-out: IC50 of single drug); 385 µM in the experiment with Karpas299 cells (Homo sapiens, KARPAS-299, read-out: IC50 of single drug).

Regarding `CN(C)/N=N/c1[nH]cnc1C(N)=O` [Dacarbazine], the 50% inhibitory concentration (IC50) came out at 178 µM in experiment [1] (setting [8]) and 31.3 µM in experiment [2] (setting [9]).

`COc1cccc2c1C(=O)c1c(O)c3c(c(O)c1C2=O)C[C@@](O)(C(=O)CO)C[C@@H]3O[C@H]1C[C@H](N)[C@H](O)[C@H](C)O1` [Doxorubicin]: the IC50 in experiment [1] (setting [8]) is 0.0278 µM; in experiment [2] (setting [9]) it was 0.0585 µM; with Karpas299 cells (setting [10]), 0.0405 µM.

For `COc1cc([C@@H]2c3cc4c(cc3[C@@H](O[C@@H]3O[C@@H]5CO[C@@H](C)O[C@H]5[C@H](O)[C@H]3O)[C@H]3COC(=O)[C@H]23)OCO4)cc(OC)c1O` [Etoposide], the IC50 in experiment [1] (setting [8]) stood at 54.2 µM; in experiment [2] (setting [9]), 30.1 µM; with Karpas299 cells (setting [10]), 64.1 µM.

`CC[C@H](C)[C@@H]([C@@H](CC(=O)N1CCC[C@H]1[C@H](OC)[C@@H](C)C(=O)N[C@H](C)[C@@H](O)c1ccccc1)OC)N(C)C(=O)[C@@H](NC(=O)[C@@H](NC)C(C)C)C(C)C` [MMAE] (H-[NMeV]V[Dil][Dolaproine]-X1): the “Sensitivity of L428 to the small molecule (in words)” value in experiment [3] is reported as “sensitive”.

On to `C[C@]12C=CC(=O)C=C1CC[C@@H]1[C@@H]2C(=O)C[C@@]2(C)[C@H]1CC[C@]2(O)C(=O)CO` [Prednisone], for which the values for the IC50 (in experiment [1] (setting [8]); in experiment [2] (setting [9]); with Karpas299 cells (setting [10])) were 113 µM, 98.5 µM and 187 µM, respectively.

As to `CNNCc1ccc(C(=O)NC(C)C)cc1` [Procarbazine], the concentration for half-maximal inhibition (IC50) turned out to be 500 µM in experiment [1] (setting [8]), 24.7 µM in experiment [2] (setting [9]) and 26.9 µM in the experiment with Karpas299 cells (setting [10]).

Regarding `CC[C@]1(O)C[C@H]2CN(CCc3c([nH]c4ccccc34)[C@@](C(=O)OC)(c3cc4c(cc3OC)N(C=O)[C@H]3[C@@](O)(C(=O)OC)[C@H](OC(C)=O)[C@]5(CC)C=CCN6CC[C@]43[C@@H]65)C2)C1` [Vincristine], the half-maximal inhibitory concentration (IC50) was 0.0281 µM in experiment [1] (setting [8]), 0.000772 µM in experiment [2] (setting [9]) and 0.0185 µM with Karpas299 cells (setting [10]).

Take Bleomycin: the IC50 in experiment [1] (read-out: IC50 of single drug) is 2.04 µM; in experiment [2] (read-out: IC50 of single drug) it was 3.2 µM; in the experiment with Karpas299 cells (read-out: IC50 of single drug) it was 1.68 µM.

In the case of “CD243 (ABC B1) monoclonal antibody (UIC 2), PE (ThermoFisher)”, the MDR1 binding ratio in experiment [4] is 1.2; in experiment [5], 2.6; in experiment [6] it was 1.2; in experiment [7] it was 16.1.
